Measurements from ChEMBL document CHEMBL2331514, “Structure-based design and synthesis of novel pseudosaccharine derivatives as antiproliferative agents and kinase inhibitors” (Eur J Med Chem, 2013).

Key:
Format in all cases: functional
UO-31 = assay: Cytotoxicity against human UO31 cells assessed as growth inhibition at 10 uM after 48 hrs by SRB assay; conditions: UO-31, 48 h, read-out: GI
OVCAR-3 = assay: Cytotoxicity against human OVCAR3 cells assessed as growth inhibition at 10 uM after 48 hrs by SRB assay; conditions: OVCAR-3, 48 h, read-out: GI
[1] = Cytotoxicity against human NCI-ADR-RES cells assessed as growth inhibition at 10 uM after 48 hrs by SRB assay; conditions: read-out: GI
SK-OV-3 = assay: Cytotoxicity against human SKOV3 cells assessed as growth inhibition at 10 uM after 48 hrs by SRB assay; conditions: SK-OV-3, 48 h, read-out: GI
PC-3 = assay: Cytotoxicity against human PC3 cells assessed as growth inhibition at 10 uM after 48 hrs by SRB assay; conditions: PC-3, 48 h, read-out: GI
LOX IMVI = assay: Cytotoxicity against human LOXIMVI cells assessed as growth inhibition at 10 uM after 48 hrs by SRB assay; conditions: read-out: GI
COLO 205 = assay: Cytotoxicity against human COLO205 cells assessed as growth inhibition at 10 uM after 48 hrs by SRB assay; conditions: COLO 205, 48 h, read-out: GI
786-0 = assay: Cytotoxicity against human 786-0 cells assessed as growth inhibition at 10 uM after 48 hrs by SRB assay; conditions: 786-0, 48 h, read-out: GI
U-251 = assay: Cytotoxicity against human U251 cells assessed as growth inhibition at 10 uM after 48 hrs by SRB assay; conditions: U-251, 48 h, read-out: GI
OVCAR-8 = assay: Cytotoxicity against human OVCAR8 cells assessed as growth inhibition at 10 uM after 48 hrs by SRB assay; conditions: OVCAR-8, 48 h, read-out: GI
T47D = assay: Cytotoxicity against human T47D cells assessed as growth inhibition at 10 uM after 48 hrs by SRB assay; conditions: read-out: GI
HOP-92 = assay: Cytotoxicity against human HOP92 cells assessed as growth inhibition at 10 uM after 48 hrs by SRB assay; conditions: HOP-92, 48 h, read-out: GI
SK-MEL-5 = assay: Cytotoxicity against human SK-MEL-5 cells assessed as growth inhibition at 10 uM after 48 hrs by SRB assay; conditions: SK-MEL-5, 48 h, read-out: GI
SF-539 = assay: Cytotoxicity against human SF539 cells assessed as growth inhibition at 10 uM after 48 hrs by SRB assay; conditions: SF-539, 48 h, read-out: GI
Malme-3M = assay: Cytotoxicity against human MALME-3M cells assessed as growth inhibition at 10 uM after 48 hrs by SRB assay; conditions: read-out: GI
CAKI-1 = assay: Cytotoxicity against human Caki1 cells assessed as growth inhibition at 10 uM after 48 hrs by SRB assay; conditions: CAKI-1, 48 h, read-out: GI
NCI-H460 = assay: Cytotoxicity against human NCI-H460 cells assessed as growth inhibition at 10 uM after 48 hrs by SRB assay; conditions: NCI-H460, 48 h, read-out: GI
NCI-H522 = assay: Cytotoxicity against human NCI-H522 cells assessed as growth inhibition at 10 uM after 48 hrs by SRB assay; conditions: NCI-H522, 48 h, read-out: GI
RPMI-8226 = assay: Cytotoxicity against human RPMI8226 cells assessed as growth inhibition at 10 uM after 48 hrs by SRB assay; conditions: RPMI-8226, 48 h, read-out: GI
Hs-578T = assay: Cytotoxicity against human Hs578T cells assessed as growth inhibition at 10 uM after 48 hrs by SRB assay; conditions: read-out: GI
UACC-62 = assay: Cytotoxicity against human UACC62 cells assessed as growth inhibition at 10 uM after 48 hrs by SRB assay; conditions: UACC-62, 48 h, read-out: GI
HCT-15 = assay: Cytotoxicity against human HCT15 cells assessed as growth inhibition at 10 uM after 48 hrs by SRB assay; conditions: HCT-15, 48 h, read-out: GI
BT-549 = assay: Cytotoxicity against human BT549 cells assessed as growth inhibition at 10 uM after 48 hrs by SRB assay; conditions: BT-549, 48 h, read-out: GI
ACHN = assay: Cytotoxicity against human ACHN cells assessed as growth inhibition at 10 uM after 48 hrs by SRB assay; conditions: read-out: GI
MDA-MB-231 = assay: Cytotoxicity against human MDA-MB-231 cells assessed as growth inhibition at 10 uM after 48 hrs by SRB assay; conditions: MDA-MB-231, 48 h, read-out: GI
NCI-H23 = assay: Cytotoxicity against human NCI-H23 cells assessed as growth inhibition at 10 uM after 48 hrs by SRB assay; conditions: NCI-H23, 48 h, read-out: GI
SW-620 = assay: Cytotoxicity against human SW620 cells assessed as growth inhibition at 10 uM after 48 hrs by SRB assay; conditions: SW-620, 48 h, read-out: GI
RXF 393 = assay: Cytotoxicity against human RXF393 cells assessed as growth inhibition at 10 uM after 48 hrs by SRB assay; conditions: RXF 393, 48 h, read-out: GI
TK-10 = assay: Cytotoxicity against human TK10 cells assessed as growth inhibition at 10 uM after 48 hrs by SRB assay; conditions: TK-10, 48 h, read-out: GI
A498 = assay: Cytotoxicity against human A498 cells assessed as growth inhibition at 10 uM after 48 hrs by SRB assay; conditions: A498, 48 h, read-out: GI
MDA-MB-435 = assay: Cytotoxicity against human MDA-MB-435 cells assessed as growth inhibition at 10 uM after 48 hrs by SRB assay; conditions: MDA-MB-435, 48 h, read-out: GI
OVCAR-5 = assay: Cytotoxicity against human OVCAR5 cells assessed as growth inhibition at 10 uM after 48 hrs by SRB assay; conditions: OVCAR-5, 48 h, read-out: GI
SF-268 = assay: Cytotoxicity against human SF268 cells assessed as growth inhibition at 10 uM after 48 hrs by SRB assay; conditions: SF-268, 48 h, read-out: GI
MCF7 = assay: Cytotoxicity against human MCF7 cells assessed as growth inhibition at 10 uM after 48 hrs by SRB assay; conditions: MCF7, 48 h, read-out: GI
SNB-19 = assay: Cytotoxicity against human SNB19 cells assessed as growth inhibition at 10 uM after 48 hrs by SRB assay; conditions: SNB-19, 48 h, read-out: GI
KM12 = assay: Cytotoxicity against human KM12 cells assessed as growth inhibition at 10 uM after 48 hrs by SRB assay; conditions: KM12, 48 h, read-out: GI
UACC-257 = assay: Cytotoxicity against human UACC257 cells assessed as growth inhibition at 10 uM after 48 hrs by SRB assay; conditions: UACC-257, 48 h, read-out: GI
NCI-H322M = assay: Cytotoxicity against human NCI-H322M cells assessed as growth inhibition at 10 uM after 48 hrs by SRB assay; conditions: read-out: GI

| SMILES | inhibition of growth at 10 µM (UO-31) [%] | inhibition of growth at 10 µM (OVCAR-3) [%] | inhibition of growth at 10 µM [1] [%] | inhibition of growth at 10 µM (SK-OV-3) [%] | inhibition of growth at 10 µM (PC-3) [%] | inhibition of growth at 10 µM (LOX IMVI) [%] | inhibition of growth at 10 µM (COLO 205) [%] | inhibition of growth at 10 µM (786-0) [%] | inhibition of growth at 10 µM (U-251) [%] | inhibition of growth at 10 µM (OVCAR-8) [%] | inhibition of growth at 10 µM (T47D) [%] | inhibition of growth at 10 µM (HOP-92) [%] | inhibition of growth at 10 µM (SK-MEL-5) [%] | inhibition of growth at 10 µM (SF-539) [%] | inhibition of growth at 10 µM (Malme-3M) [%] | inhibition of growth at 10 µM (CAKI-1) [%] | inhibition of growth at 10 µM (NCI-H460) [%] | inhibition of growth at 10 µM (NCI-H522) [%] | inhibition of growth at 10 µM (RPMI-8226) [%] | inhibition of growth at 10 µM (Hs-578T) [%] | also measured |
| --- | --- | --- | --- | --- | --- | --- | --- | --- | --- | --- | --- | --- | --- | --- | --- | --- | --- | --- | --- | --- | --- |
| COc1ccc(NC(=O)Nc2ccc(NC3=NS(=O)(=O)c4ccccc43)cc2)cc1 | 1 | -2 | -6 | -20 | -5 | 1 | -36 | 19 | 14 | -11 | 5 | -13 | 14 | 14 | 6 | -1 | 1 | 0 | 4 | -4 | inhibition of growth at 10 µM (UACC-62): -3%; inhibition of growth at 10 µM (HCT-15): 3%; inhibition of growth at 10 µM (BT-549): 15%; inhibition of growth at 10 µM (ACHN): -3%; inhibition of growth at 10 µM (MDA-MB-231): -13%; inhibition of growth at 10 µM (NCI-H23): 8%; inhibition of growth at 10 µM (SW-620): -6%; inhibition of growth at 10 µM (RXF 393): -2%; inhibition of growth at 10 µM (TK-10): -4%; inhibition of growth at 10 µM (A498): 17%; inhibition of growth at 10 µM (MDA-MB-435): 6%; inhibition of growth at 10 µM (OVCAR-5): -10%; inhibition of growth at 10 µM (SF-268): -1%; inhibition of growth at 10 µM (MCF7): 13%; inhibition of growth at 10 µM (SNB-19): -6%; inhibition of growth at 10 µM (KM12): -1%; inhibition of growth at 10 µM (UACC-257): -19%; inhibition of growth at 10 µM (NCI-H322M): 0% |
| O=C(Nc1ccccc1)Nc1ccc(OC2=NS(=O)(=O)c3ccccc32)cc1 | 13 | -9 | 21 | -13 | 11 | 49 | -9 | 26 | 21 | 5 | 23 | 2 | 17 | 21 | 21 | 25 | 21 | 21 | 36 | 13 | inhibition of growth at 10 µM (UACC-62): 21%; inhibition of growth at 10 µM (HCT-15): 48%; inhibition of growth at 10 µM (BT-549): 12%; inhibition of growth at 10 µM (ACHN): 12%; inhibition of growth at 10 µM (MDA-MB-231): 63%; inhibition of growth at 10 µM (NCI-H23): 6%; inhibition of growth at 10 µM (SW-620): 2%; inhibition of growth at 10 µM (RXF 393): 5%; inhibition of growth at 10 µM (TK-10): -7%; inhibition of growth at 10 µM (A498): 17%; inhibition of growth at 10 µM (MDA-MB-435): 15%; inhibition of growth at 10 µM (OVCAR-5): 13%; inhibition of growth at 10 µM (SF-268): 6%; inhibition of growth at 10 µM (MCF7): 17%; inhibition of growth at 10 µM (SNB-19): -1%; inhibition of growth at 10 µM (KM12): 58%; inhibition of growth at 10 µM (UACC-257): -1%; inhibition of growth at 10 µM (NCI-H322M): 5% |
| O=C(Nc1ccc(Cl)cc1)Nc1ccc2c(c1)C(Nc1ccc(Cl)cc1Cl)=NS2(=O)=O | 70 | 98 | 79 | 15 | 82 | 72 | 77 | 73 | 73 | 65 | 87 | 82 | 51 | 42 | 58 | 83 | 87 | 77 | 98 | 9 | inhibition of growth at 10 µM (UACC-62): 71%; inhibition of growth at 10 µM (HCT-15): 76%; inhibition of growth at 10 µM (BT-549): 49%; inhibition of growth at 10 µM (ACHN): 85%; inhibition of growth at 10 µM (MDA-MB-231): 43%; inhibition of growth at 10 µM (NCI-H23): 92%; inhibition of growth at 10 µM (SW-620): 69%; inhibition of growth at 10 µM (RXF 393): 15%; inhibition of growth at 10 µM (TK-10): 57%; inhibition of growth at 10 µM (A498): 68%; inhibition of growth at 10 µM (MDA-MB-435): 65%; inhibition of growth at 10 µM (OVCAR-5): 40%; inhibition of growth at 10 µM (SF-268): 40%; inhibition of growth at 10 µM (MCF7): 79%; inhibition of growth at 10 µM (SNB-19): 64%; inhibition of growth at 10 µM (KM12): 80%; inhibition of growth at 10 µM (UACC-257): 38%; inhibition of growth at 10 µM (NCI-H322M): 27% |
